# Data published in patent publication EP0095451A2, “Novel dihydropyridines” (priority 1982, dated 1983).
# Assays:
# [1] = system: isolated portal vein preparation / paced isolated papillary heart muscle preparation; test: Specificity towards smooth muscle relaxation: isolated portal vein versus paced papillary heart muscle in an organ bath; parameters: species or system Wistar rats; conditions: separation value: averaged difference of -log ED50 portal vein (vasodilatation) and -log ED50 papillary muscle (myocardial depression), transformed into numeric format
# Experimental: The specificity towards smooth muscle relaxation was examined as follows: The isolated portal vein preparation of Wistar rats was mounted in an organ bath together with a paced isolated papillary heart muscle preparation of the same animal. The integrated contractile activity of the portal vein smooth muscle and the peak force amplitude of the papillary, myocardial, preparation were recorded. The respective activities during a 30 min control period were set as 100 per cent and the ensuing activities under the influence of an agent under study were expressed as a percentage thereof. The agent was administered at 10 min intervals and the potency for vasodilatation (-log ED50 of portal vein) and that of myocardial depression (-log ED50 of ^pa^pill- ary muscle) were determined by interpolation from the concentration-effect relationships determined in each experiment. A "separation" value was determined for each compound by averaging the differences of the -log ED50 values for vasodilatation and myocardial depression, respectively, ogtained in the experiments. This logarithmic separation value was transformed into numeric format and entered into table 2.
# [2] = system: spontaneously hypertensive rats (SHR) of the Okamoto strain; test: Antihypertensive effect in conscious, unrestrained spontaneously hypertensive rats, oral cumulative dosing; assay type: in vivo; conditions: Rattus norvegicus; dose giving 20 per cent reduction of mean arterial BP, by interpolation; oral intubation in methocel, cumulated doses 1, 5 and 25 µmoles/kg at 2 hour intervals
# Experimental: The antihypertensive effect of the compounds was tested in conscious, unrestrained spontaneously hypertensive rats (SHR) of the Okamoto strain. The animals had been prepared by prior implantation of indwelling catheters in the abdominal aorta via the femoral artery. Mean arterial blood pressure (MABP) and heart rate were continuously monitored. After a 2 hour control period the compound under study was administered by oral intubation at 2 hour intervals, suspended in methocel solution (5 ml/kg bodyweight). The cumulated doses were 1, 5 and 25)jmoles/kg bodyweight. The antihypertensive response, i.e. the BP'reduction to each dose, was expressed as a percentage of the initial control BP level and plotted against the dose on a logarithmic scale. The dose which would give 20 per cent BP reduction was then determined by interpolation.
SMILES,Ratio heart vasc. [1],ED20 [2]
"COC(=O)C1=C(C)NC(C)=C(C(=O)OCCSCCN(C)C)C1c1cccc([N+](=O)[O-])c1 (stereo not drawn) [Compound 1, 2,6-dimethyl-4-(3-nitrophenyl)-1,4-dihydropyridine-3,5--dicarboxylic acid-3-[2-(N,N-dimethylaminoethylthio)ethyl]--5-methyl ester]",30,16 µmol/kg
"COC(=O)C1=C(C)NC(C)=C(C(=O)OCCSCCN(C)C)C1c1ccccc1[N+](=O)[O-] (stereo not drawn) [Compound 2, 2,6-dimethyl-4-(2-nitrophenyl)-1,4-dihydropyridine-3,5--dicarboxylic acid-3-[2-(2-N,N-dimethylaminoethylthio)ethyl]--5-methyl ester]",5,30 µmol/kg
"COC(=O)C1=C(C)NC(C)=C(C(=O)OCCSCCN(C)C)C1c1cccc(C#N)c1 (stereo not drawn) [Compound 3, 2,6-dimethyl-4-(3-cyanophenyl)-1,4-dihydropyridine-3,5--dicarboxylic acid-3-[2-(2-N,N-dimethylaminoethylthio)ethyl)--5-methyl ester]",18,50 µmol/kg
"COC(=O)C1=C(C)NC(C)=C(C(=O)OCCSCCN(C)C)C1c1cccc(Cl)c1Cl (stereo not drawn) [Compound 4, 2,6-dimethyl-4-(2,3-dichlorophenyl)-1,4-dihydropyridine-3,5-dicarboxylic acid-3-[2-(2-N,N-dimethyl-aminoethylthio)ethyl]-5-methyl ester]",3,19 µmol/kg
"CC1=C(C(=O)OCCSCCN(C)C)C(c2cccc(Cl)c2Cl)C(C(=O)OC(C)C)=C(C)N1 (stereo not drawn) [Compound 5, 2,6-dimethyl-4-(2,3-dichlorophenyl)-1,4-dihydropyridine--3,5-dicarboxylic acid-3-[2-(2-N,N-dimethylaminoethylthio)-ethyl)-5-(2-methylethyl)ester]",19,20 µmol/kg
"CCOC(=O)C1=C(C)NC(C)=C(C(=O)OCCSCCN(C)C)C1c1cccc(Cl)c1Cl (stereo not drawn) [Compound 6, 2,6-dimethyl-4-(2,3-dichlorophenyl]-1,4-dihydropyridine--3,5-dicarboxylic acid-3-[2-(2-N,N-dimethylaminoethylthio)-ethyl]-5-ethyl ester]",16,25 µmol/kg
"COCCOC(=O)C1=C(C)NC(C)=C(C(=O)OCCSCCN(C)C)C1c1cccc(Cl)c1Cl (stereo not drawn) [Compound 7, 2,6-dimethyl-4-(2,3-dichlorophenyl)-1,4-dihydropyridine--3,5-dicarboxylic acid-3-[2-(2-N,N-dimethylaminoetylthio-ethyl]-5-12-methoxyethyl) ester]",20,56 µmol/kg
CCN(CC)CCSCCOC(=O)C1=C(C)NC(C)=C(C(=O)OC)C1c1cccc(Cl)c1Cl (stereo not drawn) [Compound 8],4,6 µmol/kg
"COC(=O)C1=C(C)NC(C)=C(C(=O)OCCSCCN2CCOCC2)C1c1cccc(Cl)c1Cl (stereo not drawn) [Compound 9, 2,6-dimethyl-4-(2,3-dichlorophenyl)-1,4-dihydropyridine--3,5-dicarboxylic acid-3-[2-(2-morpholinoethylthio)-ethyl]--5-methyl ester]",27,5 µmol/kg
COC(=O)C1=C(C)NC(C)=C(C(=O)OCCSCCN(Cc2ccccc2)C(C)C)C1c1cccc(Cl)c1Cl (stereo not drawn) [Compound 10],22,9 µmol/kg
"COC(=O)C1=C(C)NC(C)=C(C(=O)OCCSCCCN(C)C)C1c1cccc(Cl)c1Cl (stereo not drawn) [Compound 11, 2,6-dimethyl-4-(2,3-dichlorophenyl)-1,4-dihydropyridine--3,5-dicarboxylic acid-3-[2-(3-N,N-dimethylaminopropylthio)-ethyl]-5-methyl ester]",3,–
"COCCOC(=O)C1=C(C)NC(C)=C(C(=O)OCCSCCN(Cc2ccccc2)C(C)C)C1c1cccc(Cl)c1Cl (stereo not drawn) [Compound 12, 2,6-dimethyl-4-(2,3-dichlorophenyl)-1,4-dihydropyridine--3,5-dicarboxylic acid-3-[2-(2-N-isopropyl-N-benzylethyl-thio)ethyl]-5-(2-methoxyethyl) ester]",50,26 µmol/kg
"COCCOC(=O)C1=C(C)NC(C)=C(C(=O)OCCSCCN2CCOCC2)C1c1cccc(Cl)c1Cl (stereo not drawn) [Compound 13, 2,6-dimethyl-4-(2,3-dichlorophenyl)-1,4-dihydropyridine-3,5-dicarboxylic acid-3-[2-(2-morpholinoethyl-thio)ethyl]-5-(2-methoxethyl) ester]",70,15 µmol/kg
"COC(=O)C1=C(C)NC(C)=C(C(=O)OC)C1c1ccccc1[N+](=O)[O-] [Nifedipine, 2,6-dimethyl-4-(2-nitrophenyl)-1,4-dihydropyridine-3,5-dicarboxylic acid-3,5-dimethylester, reference compound]",15,5 µmol/kg
